# Source: US9689021B2, “Method for measuring beta-lactam antibiotics” (priority 2011, dated 2017)
# Legend:
# [1] = test system: Oxa-29 class D beta-lactamase; experiment: BLAC2 method, nitrocefin (CPR) rate with Oxa-29; type: biochemical
# Method: (§1) The dilution buffer for the enzymes, CPR, standards and samples was 50 mM PBS buffer, pH 7.0.
# (§2) The stock solution of CPR was 200 μM. Standards solution of ampicillin and cefuroxime were prepared at 100, 75, 50, 30, 15, 5, 1 and 0 mg/L.
# In the method 2 (BLAC2), 99 μl of sample, 99 μl of CPR and 22 μl of enzyme Oxa-29 were mixed. The reaction kinetics was determined by measuring the absorbance at 482 nm as a function of time. Enzyme activity v0 max was adjusted at +/−0.2 ΔAbs482/min.
# [2] = target: P99 class C beta-lactamase (Enterobacter cloacae, UniProt P05364); experiment: BLAC1 method, nitrocefin (CPR) rate with P99 (Example 7); type: biochemical
# Method: as §1, §2
# In the method 1 (BLAC1), 10 μl of 50-fold diluted sample, 100 μl of CPR and 100 μl of enzyme P99 were mixed. The reaction kinetics was determined by measuring the absorbance at 482 nm as a function of time. Enzyme activity v0 max was adjusted at +/−0.33 ΔAbs482/min.
# [3] = target: class A beta-lactamase (penicillinase) TEM-1 (Escherichia coli, UniProt P62593); experiment: BLAC2 method, nitrocefin (CPR) rate with Tem-1; type: biochemical; conditions: even at 100 mg/L, fixed CPR
# Method: In order to determine the concentration of ampicillin in a solution, two beta-lactamases were compared, in particular the class A beta-lactamase (penicillinase) TEM-1 (UniProt: C514X2_ECOLX) and the class C beta-lactamase of Enterobacter cloacae P99 described in Example 1.
# The dilution buffer for the enzymes, nitrocefin (CPR), standards and samples was 50 mM PBS buffer, pH 7. The stock solution of CPR was 200 μM. The standard solution of ampicillin was prepared at concentrations of 100, 75, 50, 30, 15, 5, 1 and 0 mg/L.
# In the method 2 (BLAC2), 99 μl of sample, 99 μl of CPR and 22 μl of enzyme, i.e. Tem-1 or P99, were mixed. The enzyme activity (v0 max) was adjusted at +/−0.2 ΔAbs482/min.
# [4] = target: class C beta-lactamase of Pseudomonas aeruginosa (Pseudomonas aeruginosa, UniProt P24735); conditions: Pseudomonas aeruginosa, cited from earlier work
# [5] = test system: class C beta-lactamase of Enterobacter cloacae 908R; conditions: cited from earlier work
# [6] = target: class C beta-lactamase of Escherichia coli K12 (Escherichia coli, UniProt P00811); conditions: cited from earlier work
# [7] = target: class C beta-lactamase of Serratia marcescens (Serratia marcescens, UniProt P18539); conditions: Serratia marcescens, cited from earlier work
# [8] = target: class C beta-lactamase of Enterobacter cloacae P99 (Enterobacter cloacae, UniProt P05364); conditions: cited from earlier work
# [9] = target: class C beta-lactamase of Citrobacter freundii (Citrobacter freundii, UniProt P05193); conditions: cited from earlier work
# Sequence of class C beta-lactamase of Citrobacter freundii (P05193 21-381): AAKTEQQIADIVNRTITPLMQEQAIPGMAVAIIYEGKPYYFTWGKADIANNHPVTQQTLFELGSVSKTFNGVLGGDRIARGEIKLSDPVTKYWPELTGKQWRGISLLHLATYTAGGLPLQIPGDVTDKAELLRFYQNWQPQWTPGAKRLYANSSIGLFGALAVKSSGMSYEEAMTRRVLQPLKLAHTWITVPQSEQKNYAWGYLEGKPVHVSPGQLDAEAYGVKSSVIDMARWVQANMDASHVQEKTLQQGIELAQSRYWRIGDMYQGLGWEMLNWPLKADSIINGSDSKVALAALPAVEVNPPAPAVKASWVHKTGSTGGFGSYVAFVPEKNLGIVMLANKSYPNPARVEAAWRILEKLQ
# Sequence of P99 class C beta-lactamase (P05364 21-381): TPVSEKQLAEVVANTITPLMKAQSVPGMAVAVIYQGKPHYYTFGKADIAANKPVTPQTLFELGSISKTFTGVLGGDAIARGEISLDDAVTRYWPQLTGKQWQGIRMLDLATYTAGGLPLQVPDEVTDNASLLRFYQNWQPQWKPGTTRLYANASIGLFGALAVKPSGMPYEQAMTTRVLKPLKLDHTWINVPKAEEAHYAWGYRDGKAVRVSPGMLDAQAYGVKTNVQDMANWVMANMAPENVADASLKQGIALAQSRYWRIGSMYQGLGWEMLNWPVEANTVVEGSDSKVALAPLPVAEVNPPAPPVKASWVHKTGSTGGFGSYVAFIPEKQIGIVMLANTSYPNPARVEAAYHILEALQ
# Sequence of class C beta-lactamase of Pseudomonas aeruginosa (P24735 27-397): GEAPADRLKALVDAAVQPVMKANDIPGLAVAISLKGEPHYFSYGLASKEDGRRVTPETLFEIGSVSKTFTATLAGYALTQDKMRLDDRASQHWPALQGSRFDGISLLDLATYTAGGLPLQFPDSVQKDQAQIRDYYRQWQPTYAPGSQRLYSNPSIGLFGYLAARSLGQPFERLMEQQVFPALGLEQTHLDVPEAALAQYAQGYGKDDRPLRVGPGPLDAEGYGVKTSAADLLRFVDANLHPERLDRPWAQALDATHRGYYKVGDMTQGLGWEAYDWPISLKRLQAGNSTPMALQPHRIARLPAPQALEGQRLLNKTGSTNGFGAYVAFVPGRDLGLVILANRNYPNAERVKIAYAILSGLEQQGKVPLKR
# Sequence of class C beta-lactamase of Serratia marcescens (P18539 22-376): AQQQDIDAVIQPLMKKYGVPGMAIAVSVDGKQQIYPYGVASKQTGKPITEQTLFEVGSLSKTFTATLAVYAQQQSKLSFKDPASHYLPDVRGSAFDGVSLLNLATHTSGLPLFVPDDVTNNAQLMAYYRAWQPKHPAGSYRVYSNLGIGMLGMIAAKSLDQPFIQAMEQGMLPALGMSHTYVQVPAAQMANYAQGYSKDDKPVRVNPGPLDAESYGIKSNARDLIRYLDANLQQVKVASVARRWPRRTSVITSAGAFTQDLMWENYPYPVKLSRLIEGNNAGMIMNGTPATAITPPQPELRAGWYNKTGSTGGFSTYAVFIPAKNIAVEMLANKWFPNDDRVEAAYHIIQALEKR
# Sequence of class C beta-lactamase of Escherichia coli K12 (P00811 20-377): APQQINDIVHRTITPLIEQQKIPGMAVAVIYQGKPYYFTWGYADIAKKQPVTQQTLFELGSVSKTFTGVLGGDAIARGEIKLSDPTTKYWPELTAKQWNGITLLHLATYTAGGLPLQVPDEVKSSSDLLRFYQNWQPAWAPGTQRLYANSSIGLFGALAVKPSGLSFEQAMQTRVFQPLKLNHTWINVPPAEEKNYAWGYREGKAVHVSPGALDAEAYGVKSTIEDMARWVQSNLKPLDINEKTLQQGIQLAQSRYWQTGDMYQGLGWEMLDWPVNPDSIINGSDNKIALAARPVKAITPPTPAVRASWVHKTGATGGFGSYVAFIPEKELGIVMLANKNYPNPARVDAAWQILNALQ
# Sequence of class C beta-lactamase of Enterobacter cloacae P99 (P05364 21-381): as the sequence (P05364 21-381) above
# Sequence of class A beta-lactamase (penicillinase) TEM-1 (P62593 24-286 limits assumed): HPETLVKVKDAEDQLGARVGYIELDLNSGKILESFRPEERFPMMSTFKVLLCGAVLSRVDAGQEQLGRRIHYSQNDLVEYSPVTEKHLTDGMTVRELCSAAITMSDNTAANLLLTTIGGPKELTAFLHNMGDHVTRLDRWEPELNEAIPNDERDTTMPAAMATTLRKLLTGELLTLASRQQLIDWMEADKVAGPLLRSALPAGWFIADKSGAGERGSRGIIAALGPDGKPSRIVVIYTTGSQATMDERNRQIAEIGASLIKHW
structure (smiles),measurement,setting,value
CC1(C)S[C@@H]2[C@H](NC(=O)[C@H](N)c3ccccc3)C(=O)N2[C@H]1C(=O)O [Ampicillin],rate of Oxa-29 Class D beta-lactamase,"[1]; BLAC2, 1 mg/L",0.1831 ΔAbs482/min
same,"residual rate minus 1, (vomax/v0)−1, Oxa-29","[1]; BLAC2, 1 mg/L",0.048
same,rate of Oxa-29 Class D beta-lactamase,"[1]; BLAC2, 5 mg/L",0.1680 ΔAbs482/min
same,"residual rate minus 1, (vomax/v0)−1, Oxa-29","[1]; BLAC2, 5 mg/L",0.142
same,rate of Oxa-29 Class D beta-lactamase,"[1]; BLAC2, 15 mg/L",0.1532 ΔAbs482/min
same,"residual rate minus 1, (vomax/v0)−1, Oxa-29","[1]; BLAC2, 15 mg/L",0.253
same,rate of Oxa-29 Class D beta-lactamase,"[1]; BLAC2, 30 mg/L",0.1292 ΔAbs482/min
same,"residual rate minus 1, (vomax/v0)−1, Oxa-29","[1]; BLAC2, 30 mg/L",0.485
same,rate of Oxa-29 Class D beta-lactamase,"[1]; BLAC2, 50 mg/L",0.1056 ΔAbs482/min
same,"residual rate minus 1, (vomax/v0)−1, Oxa-29","[1]; BLAC2, 50 mg/L",0.817
same,rate of Oxa-29 Class D beta-lactamase,"[1]; BLAC2, 75 mg/L",0.0869 ΔAbs482/min
same,"residual rate minus 1, (vomax/v0)−1, Oxa-29","[1]; BLAC2, 75 mg/L",1.208
same,rate of Oxa-29 Class D beta-lactamase,"[1]; BLAC2, 100 mg/L",0.0730 ΔAbs482/min
same,"residual rate minus 1, (vomax/v0)−1, Oxa-29","[1]; BLAC2, 100 mg/L",1.629
same,"linear regression coefficient a (Y=aX+b), Oxa-29","[1]; BLAC2, X in mg/L",0.0159
same,"linear regression coefficient b (Y=aX+b), Oxa-29","[1]; BLAC2, X in mg/L",0.0002
same,rate of P99 class C beta-lactamase,"[2]; BLAC1, 1 mg/L",0.3221 ΔAbs482/min
same,"residual rate minus 1, (vomax/v0)−1, P99","[2]; BLAC1, 1 mg/L",0.004
same,rate of P99 class C beta-lactamase,"[2]; BLAC1, 5 mg/L",0.3207 ΔAbs482/min
same,"residual rate minus 1, (vomax/v0)−1, P99","[2]; BLAC1, 5 mg/L",0.008
same,rate of P99 class C beta-lactamase,"[2]; BLAC1, 15 mg/L",0.3164 ΔAbs482/min
same,"residual rate minus 1, (vomax/v0)−1, P99","[2]; BLAC1, 15 mg/L",0.022
same,rate of P99 class C beta-lactamase,"[2]; BLAC1, 30 mg/L",0.3114 ΔAbs482/min
same,"residual rate minus 1, (vomax/v0)−1, P99","[2]; BLAC1, 30 mg/L",0.038
same,rate of P99 class C beta-lactamase,"[2]; BLAC1, 50 mg/L",0.3008 ΔAbs482/min
same,"residual rate minus 1, (vomax/v0)−1, P99","[2]; BLAC1, 50 mg/L",0.075
same,rate of P99 class C beta-lactamase,"[2]; BLAC1, 75 mg/L",0.2909 ΔAbs482/min
same,"residual rate minus 1, (vomax/v0)−1, P99","[2]; BLAC1, 75 mg/L",0.111
same,rate of P99 class C beta-lactamase,"[2]; BLAC1, 100 mg/L",0.2806 ΔAbs482/min
same,"residual rate minus 1, (vomax/v0)−1, P99","[2]; BLAC1, 100 mg/L",0.152
same,"linear regression coefficient a (Y=aX+b), P99","[2]; BLAC1, X in mg/L",0.0015
same,"linear regression coefficient b (Y=aX+b), P99","[2]; BLAC1, X in mg/L",0.0000
same,inhibition of Tem-1 catalyzed reaction,[3],no inhibition of the reaction was observed
same,kcat,[4],4.4 s⁻¹
same,Km,[4]; read-out: Km,0.5 µM
same,Km,[5],0.4 µM
same,kcat,[5],0.53 s⁻¹
same,Km,[6],3.5 µM
same,kcat,[6],4.2 s⁻¹
same,kcat,[7],0.46 s⁻¹
same,Km,[7]; read-out: Km,0.01 µM
same,Km,[8],0.4 µM
same,kcat,[8],0.74 s⁻¹
same,Km,[9],0.2 µM
same,kcat,[9],6.5 s⁻¹
